According to PMC9506480, “Synthesis and Evaluation of Antiproliferative Activity, Topoisomerase IIα Inhibition, DNA Binding and Non-Clinical Toxicity of New Acridine–Thiosemicarbazone Derivatives” (Pharmaceuticals, 2022):

How the values were obtained:
CT DNA = CT DNA binding by UV–Vis absorption spectroscopy; design: species or system calf; conditions: compound 40 µM, CT DNA 0 to 60 µM, Tris-HCl pH 7.4
Procedure: Absorption spectroscopy is a convenient and simple method for probing the binding of small molecules to DNA. The interaction of selected acridine–thiosemicarbazone derivatives with CT DNA was studied in the 220–500 nm region. Binding constants (Kb) were calculated from [DNA]/(Ɛa − Ɛf) versus [DNA], in which Kb is given by the ratio of slope to the intercept. […] For this, the regions chosen were the ones with the highest absorption intensity above 300 nm, due to the lower interference in DNA absorption in this region (ESI, Figures S50 and S53).
The concentration of the calf thymus, Type I, fibers (CT DNA), was determined based on the extinction coefficient of the absorbance at 260 nm (6600 L mol^−1 cm^−1). All compounds were dissolved in methanol (HPLC grade) at a concentration of 1 mmol L^−1 (stock solution). Working solutions were prepared by diluting the stock solution using Tris-HCl buffer (pH 7.4), with concentrations of 40 µmol L^−1. Under the optimized concentration, the compounds were titered with increasing concentrations of CT DNA (5 to 60 µmol L^−1). After shaking the system and incubating at room temperature for 10 min, the measurements were recorded using a JASCO J818 spectropolarimeter in the range of 220 to 500 nm at 298 K. The intrinsic bond constant (Kb) was obtained by adjusting the data according to the equation below:[DNA]/(Ɛa − Ɛf) = [DNA]/(Ɛb − Ɛf) + 1/[Kb (Ɛb − Ɛf)] where Ɛa, Ɛb and Ɛf are the apparent extinction coefficient of the compounds, the extinction coefficient of the compounds found in their […] and the extinction coefficient of the compounds when fully DNA-bound, respectively. The graph of [DNA]/(Ɛa − Ɛf) versus [DNA] was used to obtain the Kb from the ratio between the slope and the intercept, as previously described in the literature. Binding data were obtained using SigmaPlot 10.0 software. The study of possible DNA denaturation using methanol–water solutions was evaluated up to the maximum final concentration of methanol in the assays (6%) (ESI, Figures S50 and S53).

[1] = test system: HCT116 (human colon carcinoma); design: method as in Silva et al. (2018) [67]; conditions: ref Silva et al. (2018) [67]; cited from earlier work
[2] = test system: HepG2 (human hepatocellular carcinoma); design: method as in Silva et al. (2018) [67]; conditions: ref Silva et al. (2018) [67]; cited from earlier work
[3] = test system: B16-F10 (murine melanoma); design: method as in Silva et al. (2018) [67]; conditions: ref Silva et al. (2018) [67]; cited from earlier work
[4] = test system: MRC-5 (human lung fibroblast); design: method as in Silva et al. (2018) [67]; conditions: ref Silva et al. (2018) [67]; cited from earlier work

Structure (SMILES)	Hypochromic (%) (CT DNA)	IC50 [1]	IC50 [2]	IC50 [3]	IC50 [4]
CC[n+]1c(-c2ccccc2)c2cc(N)ccc2c2ccc(N)cc21 [EtBr, ethidium bromide, reference compound]	35.15%				
O=c1[nH]cc(F)c(=O)[nH]1 [5-FU, 5-fluorouracil]		4.1 µM	1.3 µM	3.5 µM	57.9 µM
